Measured values as given in patent US20250025048A1, “Liver Viscoelastic Changes and Biomarkers for Cancer Invasion” (The Board of Trustees of the Leland Stanford Junior …, priority 2021, published 2025).

Columns and labels:
[1] = system: livers from HiAD-fed mice; assay: Atomic force microscopy (AFM) indentation of livers, hysteresis between approach and retraction curves; assay type: in vivo; conditions: 60 mg/kg daily, i.p., FIG. 1B
Description: FIGS. 1A-1B. ECM viscoelasticity increases in an advanced glycation end product (AGE) and hepatocyte RAGE-dependent manner. Schematic presentation of the methods used to assess mechanical responses to indentation by an atomic force microscope (AFM) probe. Force-distance curve is generated when the probe indents the sample until a defined force is reached (blue, approach curve) and the cantilever is retracted (red, retraction curve). The hysteresis between the approach and retraction curves indicates sample viscosity (FIG. 1A).
As shown in FIGS. 1A-1B, extracellular matrix (ECM) viscoelasticity increases in an AGE and hepatocyte RAGE-dependent manner. Mechanical responses to indentation were assessed by an atomic force microscope (AFM) probe. A force-distance curve is generated when the probe indents the sample until a defined force is reached and the cantilever is retracted. The hysteresis between the approach and retraction curves indicates sample viscosity (FIG. 1A).

[2] = system: livers from HiAD-fed mice; assay: Rheometry of livers (dynamic time sweep and stress relaxation test); assay type: in vivo; conditions: 600 s; for storage modulus (stiffness, G'): 2% constant strain, 1 radian/s, FIG. 3B; for faster relaxation times (high viscoelasticity) of HiAD livers, stress relaxation test: initial 10% strain, FIGS. 3C-3D
Procedure: FIGS. 3A-3D. […] The plate was lowered to touch the sample and 100˜300 Pa of initial force was applied. Dynamic time sweep test (2% constant strain, oscillation frequency 1 radian/s, measurements taken for 600 s) was done first to collect the shear storage modulus (stiffness, G′) and loss modulus (G″) (FIG. 3A). […] Stress relaxation test was performed for 600 s with an initial 10% strain. […] Stress was normalized by the initial stress (FIG. 3C). Quantification of timescale at which the stress is relaxed to half its original value (τ1/2), from the tests in FIG. 3C (FIG. 3D). (N=2-4, Data are represented as mean±SEM; one way ANOVA followed by post-hoc Tukey test *p<0.05, **p<0.01, ***p<0.001).
The plate was lowered to touch the sample and 100˜300 Pa of initial force was applied. Dynamic time sweep test (2% constant strain, oscillation frequency 1 radian/s, measurements taken for 600 s) was done first to collect the shear storage modulus (stiffness, G′) and loss modulus (G″) (FIG. 3A). […] A stress relaxation test was performed for 600 s with an initial 10% strain. […] Stress was normalized by the initial stress (FIG. 3C). Quantification of timescale at which the stress is relaxed to half its original value (τ1/2), from the tests in FIG. 3C (FIG. 3D). (N=2-4, Data are represented as mean±SEM; one way ANOVA followed by post-hoc Tukey test *p<0.05, **p<0.01, ***p<0.001).

SMILES: Cc1ncc(CO)c(CN)c1O [PM, pyridoxamine]
- hysteresis area between approach and retraction force curves (sample viscosity) [1]: reduced
- storage modulus (stiffness, G') [2]: did not change
- faster relaxation times (high viscoelasticity) of HiAD livers, stress relaxation test [2]: reversed

SMILES: Cc1sc[n+](CC(=O)c2ccccc2)c1C.[Cl-] [alagebrium, 3-phenacyl-4,5-dimethylthiazolium chloride]
- storage modulus (stiffness, G') [2]: did not change
- faster relaxation times (high viscoelasticity) of HiAD livers, stress relaxation test [2]: reversed
